Structures can show the parent of a compound that is named as a salt.
Columns and labels:
human G9a enzyme = target: T1, human G9a enzyme (Homo sapiens, UniProt Q96KQ7); assay: G9a enzyme activity assay (TR-FRET); assay type: biochemical
T1 sequence (Q96KQ7 1-1210): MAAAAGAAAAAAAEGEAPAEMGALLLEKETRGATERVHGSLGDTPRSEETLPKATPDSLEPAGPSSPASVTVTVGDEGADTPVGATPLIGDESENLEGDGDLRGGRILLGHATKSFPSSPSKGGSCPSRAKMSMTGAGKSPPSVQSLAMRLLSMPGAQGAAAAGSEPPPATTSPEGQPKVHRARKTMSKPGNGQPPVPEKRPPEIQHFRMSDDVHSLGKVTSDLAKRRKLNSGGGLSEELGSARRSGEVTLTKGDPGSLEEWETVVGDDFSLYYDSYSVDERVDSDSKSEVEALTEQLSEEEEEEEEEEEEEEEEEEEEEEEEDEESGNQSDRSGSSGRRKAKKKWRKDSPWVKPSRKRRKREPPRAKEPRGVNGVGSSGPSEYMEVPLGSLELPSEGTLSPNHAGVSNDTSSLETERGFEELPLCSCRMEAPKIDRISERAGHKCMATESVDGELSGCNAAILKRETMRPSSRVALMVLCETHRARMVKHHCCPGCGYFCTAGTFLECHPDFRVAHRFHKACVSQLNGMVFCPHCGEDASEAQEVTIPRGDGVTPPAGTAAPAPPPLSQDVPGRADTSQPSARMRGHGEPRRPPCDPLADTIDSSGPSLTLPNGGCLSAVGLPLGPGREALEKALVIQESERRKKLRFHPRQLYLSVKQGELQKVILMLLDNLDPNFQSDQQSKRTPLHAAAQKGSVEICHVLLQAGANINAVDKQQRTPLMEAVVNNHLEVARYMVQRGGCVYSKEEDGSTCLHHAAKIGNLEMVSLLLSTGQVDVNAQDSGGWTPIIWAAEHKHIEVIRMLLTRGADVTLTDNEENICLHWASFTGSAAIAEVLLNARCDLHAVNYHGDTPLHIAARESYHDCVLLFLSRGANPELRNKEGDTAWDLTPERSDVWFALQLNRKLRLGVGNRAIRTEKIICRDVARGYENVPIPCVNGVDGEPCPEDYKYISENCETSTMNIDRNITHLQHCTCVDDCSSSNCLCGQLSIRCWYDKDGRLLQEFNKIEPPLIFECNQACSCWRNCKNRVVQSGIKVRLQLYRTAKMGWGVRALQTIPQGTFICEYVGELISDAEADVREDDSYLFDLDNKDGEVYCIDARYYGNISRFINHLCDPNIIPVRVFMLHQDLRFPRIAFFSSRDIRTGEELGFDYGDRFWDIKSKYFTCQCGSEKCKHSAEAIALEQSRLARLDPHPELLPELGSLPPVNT
Procedure: The biochemical assay to measure G9a enzyme activity relies on time-resolved fluorescence energy transfer (TR-FRET) between europium cryptate (donor) and XL665 (acceptor). […] The human G9a enzyme expressed in a baculovirus infected Sf9 cell expression system was obtained from BPS Biosciences (Cat. #51001). […] Final percentage of DMSO was 0.5%. • 2 μl of 1 nM G9a enzyme diluted in assay buffer. […] Final concentration 150 nM. • Then, add 5 μl of streptavidin XL665 beads. Final concentration of 16 μM. • Read the plate after 1 hour of incubation at room temperature.
(§1) For each well, fluorescence was measured at 620 nm and 665 nm. A ratio (665 nm/620 nm) was then calculated in order to minimize medium interferences. Positive control was obtained in the presence of the vehicle of the compounds. Negative control was obtained in the absence of G9a enzyme activity. Calculated IC50 values were determined using GraphPrism using 4-parameters inhibition curve.

DNMT1 = DNMT1 (Homo sapiens, UniProt P26358); assay: DNMT1 enzyme activity assay (TR-FRET, EPIgeneous methyltransferase assay); assay type: biochemical
Chain of DNMT1 (P26358 whole entry): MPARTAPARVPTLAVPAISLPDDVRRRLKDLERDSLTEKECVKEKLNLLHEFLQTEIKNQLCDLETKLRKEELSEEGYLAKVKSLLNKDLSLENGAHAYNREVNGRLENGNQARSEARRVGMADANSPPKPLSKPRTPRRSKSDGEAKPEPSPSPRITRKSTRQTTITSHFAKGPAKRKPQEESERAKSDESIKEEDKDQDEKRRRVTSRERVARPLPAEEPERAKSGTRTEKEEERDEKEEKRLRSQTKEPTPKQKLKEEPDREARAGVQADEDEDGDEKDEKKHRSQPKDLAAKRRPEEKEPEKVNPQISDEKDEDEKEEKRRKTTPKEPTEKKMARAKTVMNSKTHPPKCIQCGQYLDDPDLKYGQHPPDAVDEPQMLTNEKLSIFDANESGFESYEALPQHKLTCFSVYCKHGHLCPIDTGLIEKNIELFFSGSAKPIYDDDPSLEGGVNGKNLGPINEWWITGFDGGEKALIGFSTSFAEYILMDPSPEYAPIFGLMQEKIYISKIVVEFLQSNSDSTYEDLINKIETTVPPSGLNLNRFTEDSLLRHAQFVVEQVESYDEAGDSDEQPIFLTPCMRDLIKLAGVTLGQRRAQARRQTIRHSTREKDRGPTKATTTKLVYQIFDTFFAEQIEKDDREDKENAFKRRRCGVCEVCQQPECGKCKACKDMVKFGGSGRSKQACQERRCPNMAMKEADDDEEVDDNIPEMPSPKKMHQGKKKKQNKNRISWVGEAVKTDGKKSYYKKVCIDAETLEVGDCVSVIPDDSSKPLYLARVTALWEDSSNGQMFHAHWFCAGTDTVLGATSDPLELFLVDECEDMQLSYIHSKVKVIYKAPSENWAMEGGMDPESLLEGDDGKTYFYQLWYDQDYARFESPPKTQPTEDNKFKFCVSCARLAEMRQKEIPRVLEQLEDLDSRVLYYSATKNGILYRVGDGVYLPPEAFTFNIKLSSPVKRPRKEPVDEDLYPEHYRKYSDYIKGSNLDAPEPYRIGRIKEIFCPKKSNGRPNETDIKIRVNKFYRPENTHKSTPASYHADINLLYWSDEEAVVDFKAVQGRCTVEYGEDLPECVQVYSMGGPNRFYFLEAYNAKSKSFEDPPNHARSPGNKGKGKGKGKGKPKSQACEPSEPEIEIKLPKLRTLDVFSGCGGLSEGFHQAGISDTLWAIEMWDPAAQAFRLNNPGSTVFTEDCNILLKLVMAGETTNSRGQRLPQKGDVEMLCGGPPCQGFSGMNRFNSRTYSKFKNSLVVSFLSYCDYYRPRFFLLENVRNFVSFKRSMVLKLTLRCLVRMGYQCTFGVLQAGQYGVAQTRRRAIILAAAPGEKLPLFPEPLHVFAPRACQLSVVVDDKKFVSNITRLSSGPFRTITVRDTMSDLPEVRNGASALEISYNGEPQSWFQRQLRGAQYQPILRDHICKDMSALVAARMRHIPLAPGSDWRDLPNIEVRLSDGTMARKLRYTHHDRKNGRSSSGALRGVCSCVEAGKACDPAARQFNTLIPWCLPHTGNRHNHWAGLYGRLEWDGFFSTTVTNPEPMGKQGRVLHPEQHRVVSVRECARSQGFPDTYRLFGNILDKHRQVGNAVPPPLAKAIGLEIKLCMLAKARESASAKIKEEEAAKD
Procedure: The biochemical assay to measure DNMT1 enzyme activity relies on time-resolved fluorescence energy transfer (TR-FRET) between lumi4-Tb (donor) and d2 (acceptor) using the EPIgeneous methyltransferase assay (CisBio Cat#62SAHPEB). […] TR-FRET signal is inversely proportional to the concentration of SAH, product of DNMT1 enzyme activity, in the sample.
The human DNMT1 was obtained from Reaction Biology Corp. (Cat# DMT-21-124). […] Final percentage of DMSO was 0.5%. • 2 μl of 1 nM DNMT1 enzyme diluted in assay buffer.
as §1

COc1cc2c(NC3CCN(C)CC3)cc(N3CCN(C)CC3)nc2cc1OCCCN1CCCC1 [Compound 1-02]
IC50 (human G9a enzyme): < 100 nM
IC50 (DNMT1): 500 to 1000 nM

COc1cc(NC2CCN(C)CC2)c2cc(OC)c(OCCCN3CCCC3)cc2n1 [Compound 2-01]
IC50 (human G9a enzyme): 100 to 500 nM
IC50 (DNMT1): 1000 to 10000 nM

COc1cc2c(NCCC(F)(F)F)cc(-c3ccc(C)o3)nc2cc1OCCCN1CCCC1 [Compound 3-11]
IC50 (human G9a enzyme): 100 to 500 nM
IC50 (DNMT1): 1000 to 10000 nM

COCCNc1cc(-c2ccc(C)o2)nc2cc(OCCCN3CCCC3)c(OC)cc12 [Compound 3-12]
IC50 (human G9a enzyme): 100 to 500 nM
IC50 (DNMT1): 1000 to 10000 nM

COc1cc2c(NCC3CCCC3)cc(-c3ccc(C)o3)nc2cc1OCCCN1CCCC1 [Compound 3-14]
IC50 (human G9a enzyme): 1000 to 10000 nM
IC50 (DNMT1): 1000 to 10000 nM

COc1cc2c(NC3CCOCC3)cc(-c3ccc(C)o3)nc2cc1OCCCN1CCCC1 [Compound 3-16]
IC50 (human G9a enzyme): 100 to 500 nM
IC50 (DNMT1): 1000 to 10000 nM

COc1cc2c(NC3CCNC(=O)C3)cc(-c3ccc(C)o3)nc2cc1OCCCN1CCCC1 (stereo not shown) [Compound 3-18]
IC50 (human G9a enzyme): 100 to 500 nM
IC50 (DNMT1): 1000 to 10000 nM

COc1cc2c(NC3CCN(C)CC3)cc(C)nc2cc1OCCCN1CCCC1 [Compound 3-23]
IC50 (human G9a enzyme): < 100 nM
IC50 (DNMT1): 500 to 1000 nM

COc1cc2c(NC3CCN(C)CC3)cc(-c3cc4ccccc4o3)nc2cc1OCCCN1CCCC1 [Compound 3-25]
IC50 (human G9a enzyme): 1000 to 10000 nM
IC50 (DNMT1): 1000 to 10000 nM

COc1cc2c(NC3CCN(C)CC3)cc(-c3cccnc3)nc2cc1OCCCN1CCCC1 [Compound 3-30]
IC50 (human G9a enzyme): < 100 nM
IC50 (DNMT1): 1000 to 10000 nM

COc1cc2c(NC3CCN(C)CC3)cc(-c3ccc(-c4ccccc4)o3)nc2cc1OCCCN1CCCC1 [Compound 3-32]
IC50 (human G9a enzyme): 1000 to 10000 nM
IC50 (DNMT1): 1000 to 10000 nM

COc1cc2c(NC3CCN(C)CC3)cc(-c3ccn(C)n3)nc2cc1OCCCN1CCCC1 [Compound 3-33]
IC50 (human G9a enzyme): < 100 nM
IC50 (DNMT1): 1000 to 10000 nM

COc1cc2c(NC3CCN(C)CC3)cc(-c3ccccc3C)nc2cc1OCCCN1CCCC1 [Compound 3-34]
IC50 (human G9a enzyme): < 100 nM
IC50 (DNMT1): 1000 to 10000 nM

COc1cc2c(NC3CCN(C)CC3)cc(-c3cc(C)oc3C)nc2cc1OCCCN1CCCC1 [Compound 3-35]
IC50 (human G9a enzyme): < 100 nM
IC50 (DNMT1): 500 to 1000 nM

COc1cc2c(NC3CCN(C)CC3)cc(-c3cc[nH]c(=O)c3)nc2cc1OCCCN1CCCC1 [Compound 3-37]
IC50 (human G9a enzyme): 100 to 500 nM
IC50 (DNMT1): 1000 to 10000 nM

COc1cc2c(NC3CCCC3)cc(-c3ccc(C)[nH]3)nc2cc1OCCCN1CCCC1 [Compound 3-38]
IC50 (human G9a enzyme): < 100 nM
IC50 (DNMT1): 100 to 500 nM

COc1cc2c(NC3CCC(C)(O)CC3)cc(-c3ccc(C)o3)nc2cc1OCCCN1CCCC1 (stereo not shown) [Compound 3-45]
IC50 (human G9a enzyme): 100 to 500 nM
IC50 (DNMT1): 1000 to 10000 nM

COc1cc2c(NC3CCC34CCNCC4)cc(-c3ccc(C)o3)nc2cc1OCCCN1CCCC1 (stereo not shown) [Compound 4-01, N-(7-azaspiro[3.5]nonan-3-yl)-6-methoxy-2-(5-methyl-2-furyl)-7-(3-pyrrolidin-1-ylpropoxy)quinolin-4-amine; 2,2,2-trifluoroacetic acid]
IC50 (human G9a enzyme): < 100 nM
IC50 (DNMT1): 100 to 500 nM

COc1cc2c(NC3CC4(CCNCC4)C3)cc(-c3ccc(C)[nH]3)nc2cc1OCCCN1CCCC1 [Compound 4-02, N-(7-azaspiro[3.5]nonan-2-yl)-6-methoxy-2-(5-methyl-1H-pyrrol-2-yl)-7-(3-pyrrolidin-1-ylpropoxy)quinolin-4 amine; hydrochloride]
IC50 (human G9a enzyme): < 100 nM
IC50 (DNMT1): 1000 to 10000 nM

COc1cc2c(NC3CCN(C)CC3)cc(C3=CCOCC3)nc2cc1OCCCN1CCCC1 [Compound 6-02]
IC50 (human G9a enzyme): < 100 nM
IC50 (DNMT1): 500 to 1000 nM

COc1cc2c(NC3CCN(C)CC3)cc(C3CCCCC3)nc2cc1OCCCN1CCCC1 [Compound 7-01, 2-cyclohexyl-6-methoxy-N-(1-methyl-4-piperidyl)-7-(3-pyrrolidin-1-ylpropoxy)quinolin-4-amine; 2,2,2-trifluoroacetic acid]
IC50 (human G9a enzyme): < 100 nM
IC50 (DNMT1): 100 to 500 nM

COc1cc2c(NC3CCN(C)CC3)cc(C3CCOCC3)nc2cc1OCCCN1CCCC1 [Compound 7-02, 6-methoxy-N-(1-methyl-4-piperidyl)-7-(3-pyrrolidin-1-ylpropoxy)-2-tetrahydropyran-4-yl-quinolin-4-amine; 2,2,2-trifluoroacetic acid]
IC50 (human G9a enzyme): < 100 nM
IC50 (DNMT1): 1000 to 10000 nM

COc1cc2c(NC3CCNCC3)cc(C3CCCCC3)nc2cc1OCCCN1CCCC1 [Compound 7-04, 2-cyclohexyl-6-methoxy-N-(4-piperidyl)-7-(3-pyrrolidin-1-ylpropoxy)quinolin-4-amine; 2,2,2-trifluoroacetic acid]
IC50 (human G9a enzyme): < 100 nM
IC50 (DNMT1): 500 to 1000 nM

COc1cc2c(NC3CCN(C)CC3)cc(-c3ccc(CN(C)C)o3)nc2cc1OCCCN1CCCC1 [Compound 8-01, 2-[5-[(dimethylamino)methyl]-2-furyl]-6-methoxy-N-(1-methyl-4-piperidyl)-7-(3-pyrrolidin-1-ylpropoxy)quinolin-4-amine; 2,2,2-trifluoroacetic acid]
IC50 (human G9a enzyme): 100 to 500 nM
IC50 (DNMT1): 1000 to 10000 nM

CCNCc1ccc(-c2cc(NC3CCN(C)CC3)c3cc(OC)c(OCCCN4CCCC4)cc3n2)o1 [Compound 8-02]
IC50 (human G9a enzyme): < 100 nM
IC50 (DNMT1): 500 to 1000 nM

COc1cc2c(NC3CCN(C)CC3)cc(-c3ccc(CO)o3)nc2cc1OCCCN1CCCC1 [Compound 9-01, [5-[6-methoxy-4-[(1-methyl-4-piperidyl)amino]-7-(3-pyrrolidin-1-ylpropoxy)-2-quinolyl]-2-furyl]methanol; 2,2,2-trifluoroacetic acid]
IC50 (human G9a enzyme): < 100 nM
IC50 (DNMT1): 500 to 1000 nM

COc1cc2c(NC3CCN(C)CC3)cc(-c3ccc(C#N)o3)nc2cc1OCCCN1CCCC1 [Compound 10-01, 5-[6-methoxy-4-[(1-methyl-4-piperidyl)-amino]-7-(3-pyrrolidin-1-ylpropoxy)-2-quinolyl]furan-2-carbonitrile; 2,2,2-trifluoroacetic acid]
IC50 (human G9a enzyme): 100 to 500 nM
IC50 (DNMT1): 1000 to 10000 nM

CCc1ccc(-c2cc(NC3CCN(C)CC3)c3cc(OC)c(OCC4CCNCC4)cc3n2)o1 [Compound 11-03]
IC50 (human G9a enzyme): 1000 to 10000 nM
IC50 (DNMT1): 500 to 1000 nM

COc1cc2c(NCC3CCN(C)CC3)cc(-c3ccc(C)[nH]3)nc2cc1OCC1CCNCC1 [Compound 11-06]
IC50 (human G9a enzyme): 100 to 500 nM
IC50 (DNMT1): 100 to 500 nM

COc1cc2c(NCC3CCN(C)C(=O)C3)cc(-c3ccc(C)[nH]3)nc2cc1OCC1CCNCC1 (stereo not shown) [Compound 11-07]
IC50 (human G9a enzyme): 500 to 1000 nM
IC50 (DNMT1): 500 to 1000 nM

COc1cc2c(NC3CC3)cc(-c3ccc(C)[nH]3)nc2cc1OCC1CCNCC1 [Compound 11-08]
IC50 (human G9a enzyme): 1000 to 10000 nM
IC50 (DNMT1): 1000 to 10000 nM

COc1cc2c(NC3CC4(CCNCC4)C3)cc(-c3ccc(C)[nH]3)nc2cc1OCC1CCNCC1 [Compound 11-09]
IC50 (human G9a enzyme): 100 to 500 nM
IC50 (DNMT1): 100 to 500 nM

COc1cc2c(NC3CC4(CCNCC4)C3)cc(-c3ccc(C)o3)nc2cc1OCC1CCNCC1 [Compound 11-10]
IC50 (human G9a enzyme): 1000 to 10000 nM
IC50 (DNMT1): 100 to 500 nM

COc1cc2c(NC3CCN(C)C(=O)C3)cc(-c3ccc(C)[nH]3)nc2cc1OCC1CCNCC1 (stereo not shown) [Compound 11-11]
IC50 (human G9a enzyme): 500 to 1000 nM
IC50 (DNMT1): 500 to 1000 nM

COc1cc2c(NC3CCN(C)C(=O)C3)cc(-c3ccc(C)[nH]3)nc2cc1OCC1CCN(C)CC1 (stereo not shown) [Compound 12-04]
IC50 (human G9a enzyme): 1000 to 10000 nM
IC50 (DNMT1): 500 to 1000 nM
